In publication PMC10447463, “Data-mining unveils structure–property–activity correlation of viral infectivity enhancing self-assembling peptides” (Nature Communications, 2023):
Where two headings read alike, the source gives them in different places.

Key:
Format in all cases: physicochemical
[1] = Aggregate analysis by widefield fluorescence microscopy
Method in brief: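 First, each peptide (1 mg/mL in PBS, from DMSO stock) incubates 1 d at room temperature; next, it is mixed with 50 µM ThT to 0.1 mg/mL; finally, widefield images at 10x (ex 480/40, em 527/30 nm) are analysed by object counting for particles exceeding 10 µm^2, in triplicate.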

[2] = Conversion rate (CR) assay with fluorescamine
Method in brief: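 1 mg/mL PNF solutions lyophilized and powders measured by diamond ATR FT-IR (2 cm^-1 resolution, 64 scans); β-sheet content calculated per a prior method. For CR, PNF solution centrifuged through 3 kDa MWCO filter (16200 x g, 4 °C, 45 min); filtrate and unfiltered sample lyophilized, dissolved in DMSO, reacted with fluorescamine.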

[3] = Turbidity, derived count rate of scattered light
[4] = Fig S8 panels A, C, 3 fields of 1330 µm x 1330 µm
[5] = Fig S8 panels B, D, average aggregate area, 3 fields of 1330 µm x 1330 µm
[6] = Fig S8 panels B, D, median aggregate area, 3 fields of 1330 µm x 1330 µm
[7] = Fig S8 panels B, D, 3 fields of 1330 µm x 1330 µm
[8] = Fig S8 panels B, D, widefield fluorescence microscopy, 3 fields of 1330 µm x 1330 µm

Substance	Avg Area in 3 *(1330 µm *1330 µm) ([1]; Fig S8 panels A, C)	Log 10 Number of aggregates in 3 * (1330 µm *1330 µm) ([1]; Fig S8 panels A, C)	Median Area in 3 * (1330 µm *1330 µm) ([1]; Fig S8 panels A, C)	log Avg Area in 3 * ( (1330 µm *1330 µm)) ([1]; Fig S8 panels A, C)	log Median Area in 3 * ( (1330 µm *1330 µm)) ([1]; Fig S8 panels A, C)	log Total Area of all particles in 3 * (1330 µm *1330 µm) ([1]; Fig S8 panels A, C)	Number of aggregates in 3 * (1330 µm *1330 µm) [1, 4]	Avg Area in 3 *(1330 µm *1330 µm) [1, 5]	Median Area in 3 * (1330 µm *1330 µm) [1, 6]	Total Area of all particles in 3 * (1330 µm *1330 µm) [1, 7]	Number of aggregates in 3 * (1330 µm *1330 µm) [1, 8]	Conversion Rate / % [2]	Conversion Rate / % ([2]; fluorescamine assay)	Count Rate ([3]; derived count rate of scattered light (turbidity))	Log10 Count Rate ([3]; turbidity, derived count rate of scattered light, log10, data of Figure 2D)
CKWKWQW [KB4]	95.93	1.94	29.43	1.982	1.469	3.921	87	95.93	29.43	8346	87	–	–	–	–
CKFKFQFNMWQ [BL2]	–	–	–	–	–	–	–	–	–	–	–	99.03%	99.03%	–	–
CKAKAQANMWQ [BL8]	857.7	0.8016	479.9	2.933	2.681	3.735	6.333	857.7	479.9	5432	6.333	92.9%	92.9%	–	–
KAKAQA [JJA2 / TM153]	–	–	–	–	–	–	–	–	–	–	–	0.3138%	0.3138%	–	–
CKAKAQANM [BL9]	–	–	–	–	–	–	–	–	–	–	–	57.73%	57.73%	–	–
CKIKQIINMWQ [MG5a / CK17]	183.3	2.289	91.75	2.263	1.963	4.553	194.7	183.3	91.75	35686.92633	194.7	–	–	–	–
RGDKIKIQI	–	–	–	–	–	–	–	–	–	–	–	–	–	298.1	2.474
HHHHKIKIKIKIYYYY [TM6]	71.63	2.1683	19.72	1.855	1.295	4.023	147.3	71.63	19.72	10553.37833	147.3	–	–	–	–
QCKFKFQFNMWQ [CK7]	–	–	–	–	–	–	–	–	–	–	–	98.91%	98.91%	–	–
MKFKFQF [DF5 / CK16]	–	–	–	–	–	–	–	–	–	–	–	–	98.72%	–	–
